“Also recorded” adds a separate entry of the source. Where two headings read alike, the source gives them in different places.
Assays:
[1] = system: HT29; test: Cytotoxicity assay for human cancer cells (MTS); format: cell-based; conditions: HT-29, HT29 colorectal adenocarcinoma, 72 h, read-out: IC 50 value
Description: (§1) Human cells were grown in DMEM medium supplemented with 10% fetal calf serum (Invitrogen), in the presence of penicillin, streptomycin and amphotericin B (Fungizone) in 75 cm^2 flask under 5% CO2. Cells were plated in 96-well tissue culture microplates at a density of 650 cells/well in 200 μl medium and treated 24 h later with the compound dissolved in DMSO at concentrations ranging from 0.5-10 μM applied using an automated benchstation (Beckman Biomek 3000). Controls received the same volume of DMSO as the test wells (1% final concentration). After a 72 h exposure time, MTS reagent (Promega) was added and incubated for 3 h at 37° C. and the absorbance was read at 490 nm. Results are expressed as the inhibition of cell proliferation calculated as the ratio [(OD490 treated/OD490 control)×100].

[2] = system: MDA435; test: Cytotoxicity assay for human cancer cells (MTS); format: cell-based; conditions: MDA435 breast ER− (highly metastatic to lungs), 72 h, read-out: IC 50 value
Description: as §1

[3] = system: MDA231; test: Cytotoxicity assay for human cancer cells (MTS); format: cell-based; conditions: MDA-MB-231, MDA231 breast ER− (hormone independent), 72 h, read-out: IC 50 value
Description: as §1

[4] = system: A549; test: Cytotoxicity assay for human cancer cells (MTS); format: cell-based; conditions: A549 lung carcinoma, 72 h, read-out: IC 50 value
Description: as §1

[5] = system: EPC; test: Cytotoxicity assay for human cancer cells (MTS); format: cell-based
Description: as §1

[6] = system: U87; test: Cytotoxicity assay for human cancer cells (MTS); format: cell-based; conditions: U-87 MG, U87 brain glioblastoma, astrocytoma, 72 h, read-out: IC 50 value
Description: as §1

[7] = system: A2780; test: Cytotoxicity assay for human cancer cells (MTS); format: cell-based; conditions: A2780 ovarian carcinoma, 72 h, read-out: IC 50 value
Description: as §1

[8] = system: K562; test: Cytotoxicity assay for human cancer cells (MTS); format: cell-based; conditions: K562 chronic myelogenous leukemia, 72 h, read-out: IC 50 value
Description: as §1

[9] = system: MCF7; test: Cytotoxicity assay for human cancer cells (MTS); format: cell-based; conditions: MCF7 breast ER+ (hormone dependent), 72 h, read-out: IC 50 value
Description: as §1

[10] = system: Lewis lung carcinoma; test: Antitumor activity in Lewis lung carcinoma bearing mice; conditions: for Drug death: deaths/animals; for Tumor Log10 cell kill: [(T − C)/3.32] × Td, Td 2.2 days
Description: Animal body weights included the tumor weights.
The percent T/C value is calculated as follows:

[11] = system: human cancer cell lines; test: Cytotoxicity on the whole panel of human cancer cell lines (MTS); format: cell-based; conditions: all human cancer cell lines of Table 2; read-out: IC50 values, range over all cell lines
[12] = system: colon 26 carcinoma; test: Antitumor activity in colon 26 carcinoma bearing mice; conditions: for Tumor Log10 cell kill: [(T − C)/3.32] × Td, Td 2 days
[13] = system: EAhy 926 endothelial cell line; test: Endothelial cell morphology evaluation (rounding up); format: cell-based; conditions: Homo sapiens, EA.hy 926; 2 h incubation; rounding up of more than 15% of cells; read-out: Cmarr EA.hy 926: lowest concentration at which cell rounding up was observed
Description: To assess the effects of the compounds on the morphology of endothelial cells, the EAhy 926 endothelial cell line was used, which is derived from the fusion of human umbilical vein endothelial cells (HUVEC) with the permanent human cell line A549 (Edgell et al, Proc. Natl. Acad. Sci. U.S.A., 1983, vol 80, issue 12, 3734-3737). The EAhy 926 cell line is considered as a good representative of native HUVEC because it expresses most of the biochemical markers of parental HUVEC (Bouis et al., Angiogenesis., 2001, 4, 91-102). EAhy 926 cells were grown in DMEM containing 2 mM L-glutamine, 10% foetal bovine serum, 100 U/mL penicillin and 100 μg/mL streptomycin in a humidified atmosphere (37° C., 5% CO2). Exponentially growing EAhy 926 cells were plated onto 96 well plates at 5000 cells/100 μL/well. Twenty-four hours after plating, the medium was aspirated, and 100 μL of medium containing the test compound was added to the well containing the cells (in triplicate) and incubated for 2 h (37° C., 5% CO2). The highest concentration used was 100 μM followed by serial two-fold dilutions down to low nanomolar concentrations, if needed for the most morphologically active compounds. After the 2 h-incubation period, digital photographs were taken of representative centre areas of each well at a magnification of 100× and 200×. The results are presented as the minimum concentration that could elicit the rounding up of more than 15% of cells in a field in order to exclude normal mitotic cells which is less that 15% in control 1% DMSO treated cells. Triplicate concentrations on the same plate were routinely carried out. CA4 was included in the experiments as a positive internal standard.
Compounds of the invention were first tested on EAhy 926 endothelial cells, which are transformed HUVEC (human umbilical vein endothelial cells). These cells undergo a rounding up upon a short 2 hour exposure to vascular disrupting agents, e.g. combretastatin A4.

[14] = system: Eahy 926 endothelial cells (preformed cords on Matrigel); test: Endothelial cell cords disruption assay; format: cell-based, human; conditions: 2 hour exposure
Description: Eahy 926 endothelial cells were seeded onto a Matrigel layer in 6 well plates and allowed to form microvascular structures for 48 h (cords). […] In this experiment the control solvent used was 1% DMSO final concentration, because this solvent was required to solubilize combretastatin A4 used as a positive internal control. Digital photographs of the same plate region were taken before drug application and two hours after.
Another typical effect of antivascular agents is the disruption of preformed cords of endothelial cells grown on a Matrigel layer.

[15] = 50 mg/kg i.p. days 4-8 and 11-15
[16] = 55 mg/kg i.p. days 4-8 and 11-15
[17] = 55 mg/kg i.p. days 4-8 and 11-15, hydrochloride
[18] = 31 mg/kg i.p. days 4, 5, 11, 12, 14, 15
[19] = 50 mg/kg i.p. days 4, 5, 11, 12, 14, 15

For COc1cc(Nc2c3c(nc4cc5c(cc24)OCO5)CCCC3=O)cc(OC)c1OC.Cl [SGR307.HCl, 6,7-(Methylenedioxy)-9-(3,4,5-trimethoxyphenylamino)-3,4-dihydroacridin-1(2H)-one, hydrochloride], the IC50 [1] was 129 nM, the IC50 [2] was 124 nM and the IC50 [3] was 79 nM. The IC50 [4] was 158 nM, the IC50 ([5]; Homo sapiens, 72 h, EPC epithelioma (quiescent cell line), 72 h, MTS, read-out: IC 50 value) was 237 nM and the IC50 ([5]; Homo sapiens, quiescent cell line EPC, values of running text, read-out: IC50 values) was 310 nM. It also gave an IC50 ([5]; quiescent cell line EPC, values of running text, hydrochloride, read-out: IC50 values) of 360 nM, an IC50 [6] of 126 nM and an IC50 [7] of 99 nM. For the same molecule, the IC50 [8] was 83 nM, the IC50 [9] was 76 nM and the “T − C (day), tumor growth delay” value [10, 15] was 4.5 days. The “Time for median tumor to reach 500 mm^3” value [10, 15] was 14.1 days, the “T/C day 18 (%)” value [10, 15] was 36.2% and the “Mean tumor volume (mm^3) on day 18 (range)” value ([10]; 50 mg/kg i.p. days 4-8 and 11-15, range 297-2230) was 1158 mm^3. For the same molecule, the Drug death [10, 15] was 0/5, the “Note (activity / toxicity assessment)” value ([10]; 50 mg/kg i.p. days 4-8 and 11-15, hydrochloride) was “not toxic; also recorded: highly active” and the “Mean body wt change [g/mouse (day of nadir)]” value (from here on “Mean body wt change”) ([10]; 50 mg/kg i.p. days 4-8 and 11-15, nadir d6) was −0.5 (d6) g/mouse. The “Tumor Log10 cell kill” value ([10]; 50 mg/kg i.p., hydrochloride) was 3, the “Time for median tumor to reach 500 mm^3” value [10, 16] was 17.4 days and the “T/C day 18 (%)” value [10, 16] was 19.3%. The “Mean tumor volume (mm^3) on day 18 (range)” value ([10]; 55 mg/kg i.p. days 4-8 and 11-15, range 457-806) was 619 mm^3, the Drug death [10, 16] was 0/5 and the “Note (activity / toxicity assessment)” value [10, 17] was “not toxic; also recorded: highly active”. For the same molecule, the “T − C (day), tumor growth delay” value [10, 17] was 7.8 days, the “Mean body wt change” value ([10]; 55 mg/kg i.p. days 4-8 and 11-15, nadir d8) was −2.4 (d8) g/mouse and the “Tumor Log10 cell kill” value ([10]; 55 mg/kg i.p.) was 5.2. For the same molecule, the IC50 [11] was 30 to 380 nM, the “T − C (day), tumor growth delay” value [12, 18] was 7.7 days and the “Time for median tumor to reach 750 mg” value [12, 18] was 21.2 days. For the same molecule, the “% T/C day 15” value [12, 18] was 15.4%, the “Mean tumor vol (mm^3) day 15” value [12, 18] was 168 mm^3 and the “Mean body wt change” value ([12]; 31 mg/kg i.p. days 4, 5, 11, 12, 14, 15, nadir d6) was −0.7 g/mouse. The “Tumor Log10 cell kill” value ([12]; 31 mg/kg i.p.) was 4.6, the “T − C (day), tumor growth delay” value [12, 19] was 13.7 days and the “Time for median tumor to reach 750 mg” value [12, 19] was 27.2 days. The “% T/C day 15” value [12, 19] was 2.8%, the “Mean tumor vol (mm^3) day 15” value [12, 19] was 31 mm^3 and the “Mean body wt change” value ([12]; 50 mg/kg i.p. days 4, 5, 11, 12, 14, 15, nadir d7) was −2.6 g/mouse. For the same molecule, the “Tumor Log10 cell kill” value ([12]; 50 mg/kg i.p.) was 8.3, the Body weight loss ([12]; 80 mg/kg i.p. days 4, 5, 11, 12, 14, 15) was over 20% and the “Mean body wt change” value ([12]; 80.6 mg/kg i.p. days 4, 5, 11, 12, 14, 15, nadir d14) was −5.4 g/mouse. The minimal effective concentration [13] was 0.06 µM and the “Lowest concentration at which destruction of endothelial cords is observed” value [14] was 0.5 µM.
